Assay results reported in US11858877B2 (priority 2019, dated 2024).

Columns and labels:
[1] = biological target: T1, recombinant activated IKKβ (Homo sapiens, UniProt O14920); assay: In vitro IKKβ kinase assay (ADP-Glo); type: biochemical; settings: for IKKβ kinase activity: at 10-fold higher concentrations than used in cell-based experiments; for inhibitory activity over IKKβ kinase activity: at the concentrations used in this study
T1 construct: purchased Promega V4502
T1 sequence (O14920 1-756): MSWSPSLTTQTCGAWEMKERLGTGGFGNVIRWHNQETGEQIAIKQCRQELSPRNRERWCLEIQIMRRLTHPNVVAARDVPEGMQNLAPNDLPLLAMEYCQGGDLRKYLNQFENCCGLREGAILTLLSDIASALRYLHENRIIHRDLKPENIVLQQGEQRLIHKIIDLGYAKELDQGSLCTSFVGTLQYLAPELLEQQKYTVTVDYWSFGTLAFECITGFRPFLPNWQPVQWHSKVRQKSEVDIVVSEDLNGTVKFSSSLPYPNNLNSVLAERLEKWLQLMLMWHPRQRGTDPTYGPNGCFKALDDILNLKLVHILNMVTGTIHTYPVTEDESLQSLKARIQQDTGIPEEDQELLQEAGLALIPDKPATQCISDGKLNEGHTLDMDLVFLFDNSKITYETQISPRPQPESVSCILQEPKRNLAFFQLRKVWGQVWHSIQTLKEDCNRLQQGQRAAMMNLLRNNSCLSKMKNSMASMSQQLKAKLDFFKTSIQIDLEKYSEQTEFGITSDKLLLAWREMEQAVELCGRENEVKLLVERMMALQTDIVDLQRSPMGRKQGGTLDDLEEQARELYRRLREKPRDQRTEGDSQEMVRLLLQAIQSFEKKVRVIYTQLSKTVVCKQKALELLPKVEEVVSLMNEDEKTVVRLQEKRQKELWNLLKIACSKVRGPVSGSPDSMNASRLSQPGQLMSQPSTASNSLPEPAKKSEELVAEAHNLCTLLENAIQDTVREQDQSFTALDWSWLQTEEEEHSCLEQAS
Description: 1× kinase buffer A (40 mM Tris-HCl pH 7.4, 20 mM MgCl2, 0.1 mg/mL BSA, supplemented with 2 mM MnCl2, 2 mM DTT and 100 μM Sodium vanadate) was used to prepare all components of the reaction. All components were prepared in a 96-well plate and transferred to every other well of a 384-well opaque plate (Sigma-Aldrich, CLS3825-10EA) using a multichannel pipet. A 2.5× ATP/IKKtide substrate mix (62.5 μM ATP mixed with 0.5 μg/μL IKKtide) was prepared, and a 5× concentration of the indicated concentration of compounds in 0.5% DMSO, maintaining a final DMSO concentration of 0.1% in all reactions. […] The plate was briefly spun, and the reaction incubated at room temperature for 1 h. Next, 5 μL of ADP-Glo reagent were added to each well, spun and incubated for 40 minutes at room temperature. Finally, 10 μL of Kinase Detection Reagent were added to each well and incubated for 30 minutes at room temperature. Luminescence from each well was measured using an integration time of 500 ms in a M4 microplate reader (SpectraMax). Data from triplicate reactions were extracted and plotted.

[2] = tested on: TNF-induced nuclear translocation of NF-kB; assay: Live-cell imaging of TNF-induced nuclear FP-RelA (NF-kB) translocation in single U2OS cells; type: cell-based, human; settings: for Maximum fold change (Max) of nuclear FP-RelA / area under the fold change curve (AUC) of nuclear FP-RelA: 10 μM compound pretreatment before addition of TNF; for potency in restricting the signaling network upstream of NF-kB activation: TNF-stimulated U2OS FP-RelA cells; for nuclear mobilization of NF-kB: U2OS FP-RelA cells pre-treated with compound before exposure to TNF
Description: Rep., 22:585-599 (2018)).
To quantify the compounds' effect on NF-kB dynamics, each single-cell trajectory was decomposed into a series of descriptors (FIG. 3c) that transmit information within the cell about extracellular cytokine concentrations (Zhang et al., Cell. Syst., 5:638-645 e635 (2017)).
(§1) Live cells were imaged in an environmentally controlled chamber (37° C., 5% CO2) on a DeltaVision Elite microscope equipped with a pco.edge sCMOS camera and an Insight solid-state illumination module (GE). U2OS cells expressing FP-RelA/IKKγ were seeded at a density of 25000 cells/well 24 hours prior to live-cell imaging experiments on no. 1.5 glass bottom 96 well imaging plates (Matriplate). For imaging of FP-RelA nuclear translocation, live-cells were pre-treated with DMSO or indicated concentrations of compounds for 2 hours before exposure to either 100 ng/ml recombinant human TNF (Peprotech) or 100 ng/ml recombinant human IL1β (Peprotech). Wide-field epifluorescence and DIC images were collected using a 20× […] objective (0.45NA; Olympus). Cells were imaged for at least 30 minutes prior to addition of compounds. For detection of IKKγ puncta, live-cells were pre-treated with DMSO or indicated concentration of compounds for 2 hours before exposure to 100 ng/ml TNF. Wide-field epifluorescence and DIC images were collected using a 60× […] objective. […] Time-lapse images were collected over at least 4 fields per condition with a temporal resolution of 5 minutes per frame. Quantification of nuclear FP-RelA localization and the formation IKKγ puncta from flat-field and background corrected images was performed using customized scripts in Matlab and ImageJ.
(§2) For permutation tests, data from the TNF-only and the indicated experimental condition were combined and randomly distributed into ‘Permuted control’ and ‘Permuted experimental’ bins without replacement, preserving the size of the original control and experimental data sets. 10^6 permutations were performed and the difference between the means of permuted control and experimental data were calculated for each condition to generate a histogram. Two-tailed p-values were determined by computing the fraction of permuted data sets where Δmeanpermuted≥Δmeanunpermuted (FIGS. 12, 13, and 15).

[3] = tested on: IKKγ; assay: Western blot of IKKγ expression in CRISPR-modified U2OS cells; type: cell-based, human; settings: Actin-corrected band intensity
Description: U2OS cells (parental and expressing EGFP-RelA/IKKγ via CRISPR Knock-in) were cultured for 24 hrs in complete growth medium. After treatments, cells were lysed in SDS-based lysis buffer consisting of 120 mM Tris-Cl, pH 6.8, 4% SDS supplemented with protease and phosphatase inhibitors at 4° C. for 30 min. Protein extracts were clarified by centrifugation at 4° C. at 12,000×g for 10 min. Lysate protein levels were quantified by BCA assay (Pierce). Samples were separated by SDS-PAGE, 25 μg total protein per lane, then transferred to PVDF membranes. Blocking was done in 5% milk in TBS for 1 hour. Primary antibodies directed at RelA and β-actin (#4764 and #3700 respectively; Cell Signaling Technology), IKKγ and GAPDH (sc-8330 and sc25778 respectively; Santa Cruz) were diluted in 5% milk in TBS-T and incubated overnight at 4° C. Alexa 680/800-conjugated secondary antibodies (LICOR) were used in combination with an Odyssey (LI-COR) scanner for detection and quantification of band intensities.

[4] = tested on: IL1-induced dynamics of nuclear NF-kB; assay: Live-cell imaging of IL1-induced nuclear FP-RelA (NF-kB) dynamics in U2OS cells; type: cell-based, human; settings: 10 μM compound, 100 ng/mL IL1
Description: Live cells were imaged in an environmentally controlled chamber (37° C., 5% CO2) on a DeltaVision Elite microscope equipped with a pco.edge sCMOS camera and an Insight solid-state illumination module (GE). U2OS cells expressing FP-RelA/IKKγ were seeded at a density of 25000 cells/well 24 hours prior to live-cell imaging experiments on no. 1.5 glass bottom 96 well imaging plates (Matriplate). For imaging of FP-RelA nuclear translocation, live-cells were pre-treated with DMSO or indicated concentrations of compounds for 2 hours before exposure to either 100 ng/ml recombinant human TNF (Peprotech) or 100 ng/ml recombinant human IL1β (Peprotech). Wide-field epifluorescence and DIC images were collected using a 20× […] objective (0.45NA; Olympus). […] Quantification of nuclear FP-RelA localization and the formation IKKγ puncta from flat-field and background corrected images was performed using customized scripts in Matlab and ImageJ.
as §2, with “Two-tailed p-values were determined by computing the fraction of permuted data sets where Δmeanpermuted≥Δmeanunpermuted (FIGS. 12, 13, and 15).” left out

[5] = tested on: mature TNFR1 complex; assay: Live-cell imaging of FP-IKK puncta in TNF-stimulated U2OS cells; type: cell-based, human; settings: pretreated with compound before 100 ng/mL TNF
Description: as §1

[6] = biological target: T2, full length TRAF2 (Homo sapiens, UniProt Q12933); assay: Fluorescence-based thermal shift assay of TRAF2; type: binding; settings: 1 uM GST-TRAF2, melt curve 25-99° C.
T2 construct: dose-dependent stabilizing effect on full length TRAF2; purchased Rockland
T2 sequence (Q12933 1-501): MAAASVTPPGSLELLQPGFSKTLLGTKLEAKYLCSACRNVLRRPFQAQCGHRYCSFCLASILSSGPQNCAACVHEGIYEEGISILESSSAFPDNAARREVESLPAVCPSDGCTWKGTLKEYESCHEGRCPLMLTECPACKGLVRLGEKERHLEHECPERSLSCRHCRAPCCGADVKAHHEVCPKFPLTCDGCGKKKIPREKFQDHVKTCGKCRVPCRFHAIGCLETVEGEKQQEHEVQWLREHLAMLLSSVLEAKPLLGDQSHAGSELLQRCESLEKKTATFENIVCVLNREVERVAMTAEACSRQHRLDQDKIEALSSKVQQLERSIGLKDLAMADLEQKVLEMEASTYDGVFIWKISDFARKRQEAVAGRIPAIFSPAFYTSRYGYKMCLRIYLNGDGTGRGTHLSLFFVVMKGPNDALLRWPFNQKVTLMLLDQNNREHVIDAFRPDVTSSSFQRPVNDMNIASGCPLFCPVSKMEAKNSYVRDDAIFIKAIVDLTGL
Description: To test whether the compounds interact with TRAF2 in vitro, the thermal stability of purified TRAF2 in the presence of each compound was measured.
TRAF2—compound interactions were measured by fluorescence-based thermal shift using an Applied Biosystems ABI QuantStudio(TM) 6 Flex System. […] PCR plates were covered with optical seal, shaken, and centrifuged after protein and compounds were added. The instrument was programmed in the Melt Curve mode and the Standard speed run. The reporter was selected as Rox and None for the quencher. Each melt curve was programmed as follows: 25° C. for 2 min, followed by a 0.05° C. increase per second from 25° C. to 99° C., and finally 99° C. for 2min. Fluorescence intensity was collected continuously. In the Melt Curve Filter section, X4 (580 ±10)-M4 (623±14) was selected for the Excitation Filter-Emission Filter. The raw data was extracted in MS-Excel format.

[7] = tested on: U2OS cells; assay: Compound toxicity comparison, LIVE/DEAD Cell Imaging Kit; type: cell-based, human; settings: 10 μM, 2 h, 16 h or 24 h
Description: Cytotoxicity of the three compounds was compared with Bay 11-7082 (Cayman, 10010266), an inhibitor of the NF-κB pathway at working concentrations of 1-10 μM, using the LIVE/DEAD Cell Imaging Kit (488/570) (Invitrogen, R37601). For each condition, 15,000 U2OS cells were seeded in 200 μL of growth medium in each well of 96-well plate 48 h before microscopy. Next, medium was changed to medium containing either DMSO, 10 μM of indicated compound, or 10 μM of Bay 11-7082 for the indicated duration (2 h, 16 h, or 24 h). Before imaging, medium was changed to phenol red-free FluoBrite DMEM (Gibco, A18967-01) containing 300 ng/mL of Hoechst 33342, and 1:10000 of both Live Green and Dead Red dyes of the LIVE/DEAD Cell Imaging Kit. Cells were incubated for 60 minutes and imaged on the Delta Vision Elite imaging system at 20× magnification with a […] objective (0.45NA; Olympus). Analysis was done using Cell Profiler to segment cells and quantify median nuclear intensity values. Further analysis was performed using custom scripts in MATLAB. Data from biological triplicates were plotted as the mean ± SD.

Compound	IKKβ kinase activity [1]	inhibitory activity over IKKβ kinase activity [1]	Maximum fold change (Max) of nuclear FP-RelA [2]	area under the fold change curve (AUC) of nuclear FP-RelA [2]	potency in restricting the signaling network upstream of NF-kB activation [2]	nuclear mobilization of NF-kB [2]	overall expression level of IKKγ [3]	IL1-induced dynamics of nuclear NF-kB vs IL1-only control cells [4]	number of TNF-induced FP-IKK puncta [5]	dose-dependent stabilizing effect on full length TRAF2 (thermal shift) [6]	cytotoxicity (fraction of surviving cells) [7]
CCC(OC(=O)c1ccc(S(C)(=O)=O)c([N+](=O)[O-])c1)C(=O)NC1C2CC3CC(C2)CC1C3 (stereo not shown) [Compound 3]	not inhibited	no direct inhibitory activity	significantly less	significantly less	low micromolar potency	reduced with increasing concentration	reduced	indistinguishable	greatly reduced	moderate	low cytotoxicity
CC(C)CN1CCN(C(=O)COC(=O)c2ccc(S(C)(=O)=O)c([N+](=O)[O-])c2)CC1 [Compound 2]	not inhibited	no direct inhibitory activity	significantly less	significantly less	low micromolar potency	reduced with increasing concentration	reduced	indistinguishable	greatly reduced	subtle	low cytotoxicity
